Where a SMILES comes first, the peptide text is derived from it. [ ]: non-standard residue; d: D form. The star is where a group is joined. His(τ-Bzl) = N[C@@H](Cc1cn(Cc2ccccc2)cn1)C(=O)O; Nle = CCCC[C@H](N)C(=O)O; NHBn = c1ccc(CN*)cc1; Bn = c1ccc(C*)cc1; OtBu = CC(C)(C)O*; tBu = CC(C)(C)*

The source of these data is PMC6153520, “Proteasome inhibition and mechanism of resistance to a synthetic, library-based hexapeptide” (Investigational New Drugs, 2018).

Series [1] deals with THP1 cells. The experiment in a line: Growth inhibition with or without Ruthenium Red. The series is classed as cell-based, human. The settings on record: 72 h, with or without 25 μM Ruthenium Red. As to the method: (§1) Evaluation of drug sensitivity was carried out as described before. Cells were seeded at an initial density of 1.25 × 10^5 cells/ml in individual wells of a 24-well plate containing up to 50 μl of drug solutions. Inhibition of cell growth was determined after 72 h of incubation at 37 °C by determining the number of viable cells […] using trypan blue exclusion. The drug concentration required to inhibit cell growth by 50% compared to untreated controls was defined as the IC50.

For series [2], the system named is Multidrug Resistance-associated Protein 1 (MRP1/ABCC1). Also on record: method as in PMID 11289130. As to conditions: ref [32]; cited from earlier work.
Series [3] concerns THP1/WT. The class given is cell-based, human. Here is the method: (§2) Human monocytic/macrophage THP1 cells (ATTC, Manassas, USA) were cultured in RPMI-1640 medium supplemented with 5% fetal calf serum, 20 mM HEPES, 2 mM glutamine and 100 μg/ml penicillin/ streptomycin at 5% CO2 and 37 °C. Cell cultures were seeded at a density of 3 × 10^5 cells/ml and refreshed twice weekly. […] Some specific experiments also included THP1/BTZ100 cells that were cultured in the absence of BTZ for 6 months (further designated as THP1/BTZ (−100) cells). Mouse thymoma EL4 and human multiple myeloma H929 cells were cultured in RPMI-1640 medium supplemented with 8% fetal calf serum and 100 μg/ml penicillin/streptomycin at 5% CO2 and 37 °C.
as §1

For series [4], the system named is THP1/BTZ100. The series is classed as cell-based, human. The settings on record: 72 h. As to the method:
as §2, §1

Series [5] relates to THP1/BTZ (−100) cells. The class given is cell-based, human. The settings on record: 72 h. As to the method:
as §2, §1

The subject of series [6] is proteasome β1 subunit. Put plainly: Western blot, proteasome subunit expression. The series is classed as cell-based, human. The settings on record: 0.1–10 μM, 24 h; THP1/WT, THP1/BTZ100, THP1/BTZ (−100). As to the method: (§3) Western blot analysis to determine protein levels of (i) β1, β2 and β5 proteasome subunits and (ii) the accumulation of ubiquitinated proteins after treatment with 4A6 was performed essentially as described previously. Cells were harvested in the mid-log phase of growth and washed 3 times with ice-cold buffered saline pH 7.4. Total cell lysates of 5 × 10^6 cells were prepared by resuspension in 500 μl lysis buffer containing: 50 mM Tris-HCl (pH 7.6), 5 mM dithiotreitol, 20 μl PIC (Protease Inhibitor Cocktail; 1 tablet/ml H2O), 20% glycerol and 0.5% NP-40. The suspension was sonicated (MSE sonicator, amplitude 7, for 3 × 5 s with 20 s time intervals at 4 °C) and centrifuged in an Eppendorf micro centrifuge (5 min, 12,000 rpm, 4 °C). Protein content of the supernatant was determined by the Bio-Rad protein assay. 20–30 μg of total cell lysates were fractionated on a 10% polyacrylamide gel containing SDS and transferred onto a PVDF membrane. The membranes were pre-incubated overnight at 4 °C in blocking buffer (5% Bio-Rad Blocker in TBS-T; 10 mM Tris-HCl, pH 8.0, 0.15 M NaCl, 0.1% Tween-20) to prevent non-specific antibody binding. After blocking, the membranes were incubated for 1 h at room temperature with primary antibodies for proteasome subunit β1 (1:1000, PW8140), β2 (1:1000, PW8145) and β5 (1:1000, PW8895) or ubiquitin (1:1000, Santa-Cruz, SC-8017). An antibody to α-tubulin was used (1:1000, Santa Cruz, sc-8035) to check and normalize for any loading differences. After 3 washing steps with TBS-T, the membranes were incubated for 1 h with HRP-labelled donkey-anti-rabbit (1:6000, Amersham, UK) or goat-anti-mouse (1:6000, Dako, Glostrup, Denmark) as secondary antibody. Detection of antibody binding was followed by chemoluminescence using Supersignal (Pierce Biotechnology, Rockford, USA) according to the manufacturers’ instructions. […] The signal intensity was determined densitometrically using Quantity One software (Bio-Rad) and was expressed relative to the intensity of the α-tubulin signal.
(Immunoblotting shows a protein as a band on a membrane.)

The subject of series [7] is proteasome β2 subunit. Put plainly: Western blot, proteasome subunit expression. As to conditions: 0.1–10 μM, 24 h; THP1/WT, THP1/BTZ100, THP1/BTZ (−100). The class given is cell-based, human. Here is the method:
as §3

Series [8] concerns proteasome β5 subunit. Put plainly: Western blot, proteasome subunit expression. The class given is cell-based, human. As to conditions: 10 μM 4A6, 24 h; THP1/WT, THP1/BTZ100 and THP1/BTZ (−100); densitometry. Here is the method: as §3
Series [9] relates to caspase-like proteasome activity. Put plainly: Proteasome activity in THP1 cell extracts (fluorogenic substrate). The series is classed as biochemical, human. As to conditions: 1–100 μM, 1 h exposure. Here is the method:
Chymotrypsin-like, trypsin-like and caspase-like proteolytic activities of the proteasome were determined in freshly prepared cell lysates as described previously. Five million untreated or bortezomib-exposed THP1 cells were washed 3 times with ice-cold PBS and pelleted by centrifugation (5 min, 12,000 RPM, 4 °C). Cell pellets were then resuspended in an ATP-containing lysis buffer; 10 mM Tris-HCl buffer (pH 7.8) containing 5 mM ATP, 0.5 mM DTT and 5 mM MgCl2, and kept on ice for 10 min. For complete lysis, cells were sonicated (MSE sonicator, amplitude 7, for 3 × 5 s with 20 s time intervals at 4 °C) followed by centrifugation (5 min, 12,000 RPM, 4 °C) to remove cell debris. The supernatant was collected and protein concentration was determined using the Bio-Rad protein assay. […] The release of amc (7-amino-4-methyl-coumarin) was monitored online over a 2-h time period at 37 °C with 5 min intervals. Fluorescence was measured on a Tecan SpectraFluor apparatus (Giessen, The Netherlands) using excitation and emission wavelengths of 360 and 465 nm, respectively. Proteolytic activity was calculated from the slopes of the linear portion of the curves. All results were expressed as percentage relative to untreated THP1/WT cells (100%). […]

In series [10] the test system is bortezomib-resistant cells (THP1/BTZ200). Put plainly: Western blot, accumulation of ubiquitinated proteins. The class given is cell-based, human. As to conditions: 24 h, same concentrations as in THP1/WT. As to the method: as §3
For series [11], the system named is THP1/WT cells. Described as above. The series is classed as cell-based, human. As to conditions: 24 h exposure. As to the method:
as §3

The subject of series [12] is bortezomib-resistant THP1 cell lines. The experiment in a line: Growth inhibition assay, cross-resistance. The settings on record: relative to THP1/WT; 72 h growth inhibition. The class given is cell-based, human. As to the method: as §2, §1

Usually IC50 stands for the concentration at which inhibition is half-maximal. Read a low IC50 as higher potency. As for `CCCC[C@H](NC(=O)[C@@H](NC(=O)[C@H](Cc1cn(Cc2ccccc2)cn1)NC(=O)[C@@H](NC(C)=O)[C@@H](C)OC(C)(C)C)[C@@H](C)OCc1ccccc1)C(=O)N[C@@H](CCC(=O)OC(C)(C)C)C(=O)NCC(=O)NCc1ccccc1` [4A6, Ac-Thr(tBu)-His(Bzl)-Thr(Bzl)-Nle-Glu(OtBu)-Gly-Bza] (Ac-T(tBu)[His(τ-Bzl)]T(Bn)[Nle]E(OtBu)G-NHBn), the “effect of Ruthenium Red on growth inhibitory activity (protection)” value in [1] is given as “no effect”. Besides, the “ability to reverse efflux pump MDR (ABCC1)” value in [2] is reported as “lacked the ability to reverse efflux pump MDR”. Moreover, the “substrate of MDR efflux transporter ABCC1” value in series [2] is “substrate”. For the same compound, the results for the IC50 in [3] (72 h), in series [4] and in [5] were 0.26 ± 0.06 µM, above 25 µM and 10 µM, respectively. Besides, the “[Resistance Factor] THP1/WT” value in series [3] (reference value in square brackets) is 1. The “[Resistance Factor] THP1/BTZ100” value in series [4] (relative to IC50 in THP1/WT) was determined as 117. Besides, the “effect on expression of the β1 proteasome subunit” value in series [6] is “No significant effects”. The “effect on expression of the β2 proteasome subunit” value in [7] is “No significant effects”. For the same compound, the “increase in β5 subunit induction vs drug-free controls” value in series [8] is 3–5 fold. Further, the “inhibitory effect on caspase-like activity” value in series [9] was “no inhibitory effect”. The “accumulation of ubiquitinated proteins” value in [10] is “did not provoke any accumulation of ubiquitinated proteins”; in [11] it was “marked accumulation of ubiquitinated proteins”. Also, the “cross-resistance of bortezomib-resistant cell lines” value in series [12] is “up to 287 fold”.
